Data reported in patent US20230017045A1, “PYRIDINE AND PYRIMIDINE CARBOXYLATE HERBICIDES AND METHODS OF USE THEREOF” (Dow AgroSciences LLC, priority 2017, published 2023).

system: test plant species; experiment: Post-emergent herbicidal activity test (greenhouse, foliar spray, visual growth reduction); format: in vivo; conditions: post-emergence, 336 h, ALOMY: blackgrass (Alopecurus myosuroides), 140 g ai/ha, 14 days after application, read-out: Visual Growth Reduction (%) 14 Days After Application, ALOMY
How it was run: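 Greenhouse plants at first–second true leaf stage sprayed overhead at 187 L/ha with compound in acetone/water/isopropanol/DMSO/crop oil/X-77 carrier; controls received solvent blank. Injury rated visually after 14 d on a 0–100% scale versus untreated and control plants, converted to growth reduction.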

Row | SMILES | pest or weed control at 140 g/ha [%]
1 | COC(=O)c1nc(-c2ccc(Cl)c(F)c2Cl)ccc1Cl [F63, Methyl 3-chloro-6-(2,4-dichloro-3-fluorophenyl) picolinate] | 0 to 29

same assay, conditions: post-emergence, 336 h, AMARE: redroot pigweed (Amaranthus retroflexus), 140 g ai/ha, 14 days after application, read-out: Visual Growth Reduction (%) 14 Days After Application, AMARE

Row | SMILES | pest or weed control at 140 g/ha [%]
2 | COC(=O)c1nc(-c2ccc(Cl)c(F)c2Cl)ccc1Cl [F63, Methyl 3-chloro-6-(2,4-dichloro-3-fluorophenyl) picolinate] | 95 to 100

same assay, conditions: post-emergence, 336 h, AVEFA: wild oat (Avena fatua), 140 g ai/ha, 14 days after application, read-out: Visual Growth Reduction (%) 14 Days After Application, AVEFA

Row | SMILES | pest or weed control at 140 g/ha [%]
3 | COC(=O)c1nc(-c2ccc(Cl)c(F)c2Cl)ccc1Cl [F63, Methyl 3-chloro-6-(2,4-dichloro-3-fluorophenyl) picolinate] | 0 to 29

same assay, conditions: post-emergence, 336 h, CHEAL: lambsquarters (Chenopodium album), 140 g ai/ha, 14 days after application, read-out: Visual Growth Reduction (%) 14 Days After Application, CHEAL

Row | SMILES | pest or weed control at 140 g/ha [%]
4 | COC(=O)c1nc(-c2ccc(Cl)c(F)c2Cl)ccc1Cl [F63, Methyl 3-chloro-6-(2,4-dichloro-3-fluorophenyl) picolinate] | 95 to 100

same assay, conditions: post-emergence, 336 h, CIRAR: canada thistle (Cirsium arvense), 140 g ai/ha, 14 days after application, read-out: Visual Growth Reduction (%) 14 Days After Application, CIRAR

Row | SMILES | pest or weed control at 140 g/ha [%]
5 | COC(=O)c1nc(-c2ccc(Cl)c(F)c2Cl)ccc1Cl [F63, Methyl 3-chloro-6-(2,4-dichloro-3-fluorophenyl) picolinate] | 85 to 94

same assay, conditions: post-emergence, 336 h, CYPES: yellow nutsedge (Cyperus esculentus), 140 g ai/ha, 14 days after application, read-out: Visual Growth Reduction (%) 14 Days After Application, CYPES

Row | SMILES | pest or weed control at 140 g/ha [%]
6 | COC(=O)c1nc(-c2ccc(Cl)c(F)c2Cl)ccc1Cl [F63, Methyl 3-chloro-6-(2,4-dichloro-3-fluorophenyl) picolinate] | 0 to 29

same assay, conditions: post-emergence, 336 h, DIGSA: crabgrass (Digitaria sanguinalis), 140 g ai/ha, 14 days after application, read-out: Visual Growth Reduction (%) 14 Days After Application, DIGSA

Row | SMILES | pest or weed control at 140 g/ha [%]
7 | COC(=O)c1nc(-c2ccc(Cl)c(F)c2Cl)ccc1Cl [F63, Methyl 3-chloro-6-(2,4-dichloro-3-fluorophenyl) picolinate] | 85 to 94

same assay, conditions: post-emergence, 336 h, ECHCG: barnyardgrass (Echinochloa crus-galli), 140 g ai/ha, 14 days after application, read-out: Visual Growth Reduction (%) 14 Days After Application, ECHCG

Row | SMILES | pest or weed control at 140 g/ha [%]
8 | COC(=O)c1nc(-c2ccc(Cl)c3ccccc23)c(F)cc1Cl [F346, Methyl 3-chloro-6-(4-chloronaphthalen-1-yl)-5-fluoropicolinate] | 0 to 29
9 | COc1cc(-c2nc(C(=O)O)c(Cl)cc2F)c(Cl)cc1C(F)(F)F [F337, 3-Chloro-6-(2-chloro-5-methoxy-4-(trifluoromethyl)phenyl)-5-fluoropicolinic acid] | 60 to 74

same assay, conditions: post-emergence, 336 h, IPOHE: ivy-leaf morning glory (Ipomoea hederacea), 140 g ai/ha, 14 days after application, read-out: Visual Growth Reduction (%) 14 Days After Application, IPOHE

Row | SMILES | pest or weed control at 140 g/ha [%]
10 | COC(=O)c1nc(-c2ccc(Cl)c3ccccc23)c(F)cc1Cl [F346, Methyl 3-chloro-6-(4-chloronaphthalen-1-yl)-5-fluoropicolinate] | 30 to 44
11 | COc1cc(-c2nc(C(=O)O)c(Cl)cc2F)c(Cl)cc1C(F)(F)F [F337, 3-Chloro-6-(2-chloro-5-methoxy-4-(trifluoromethyl)phenyl)-5-fluoropicolinic acid] | 95 to 100
12 | COC(=O)c1nc(-c2ccc(Cl)c(F)c2Cl)ccc1Cl [F63, Methyl 3-chloro-6-(2,4-dichloro-3-fluorophenyl) picolinate] | 95 to 100

same assay, conditions: post-emergence, 336 h, KCHSC: kochia (Bassia scoparia), 140 g ai/ha, 14 days after application, read-out: Visual Growth Reduction (%) 14 Days After Application, KCHSC

Row | SMILES | pest or weed control at 140 g/ha [%]
13 | COC(=O)c1nc(-c2ccc(Cl)c3ccccc23)c(F)cc1Cl [F346, Methyl 3-chloro-6-(4-chloronaphthalen-1-yl)-5-fluoropicolinate] | 0 to 29
14 | COc1cc(-c2nc(C(=O)O)c(Cl)cc2F)c(Cl)cc1C(F)(F)F [F337, 3-Chloro-6-(2-chloro-5-methoxy-4-(trifluoromethyl)phenyl)-5-fluoropicolinic acid] | 85 to 94
15 | COC(=O)c1nc(-c2ccc(Cl)c(F)c2Cl)ccc1Cl [F63, Methyl 3-chloro-6-(2,4-dichloro-3-fluorophenyl) picolinate] | 60 to 74

same assay, conditions: post-emergence, 336 h, ORYSA: rice (Oryza sativa), 140 g ai/ha, 14 days after application, read-out: Visual Growth Reduction (%) 14 Days After Application, ORYSA

Row | SMILES | pest or weed control at 140 g/ha [%]
16 | COC(=O)c1nc(-c2ccc(Cl)c3ccccc23)c(F)cc1Cl [F346, Methyl 3-chloro-6-(4-chloronaphthalen-1-yl)-5-fluoropicolinate] | 0 to 29
17 | COc1cc(-c2nc(C(=O)O)c(Cl)cc2F)c(Cl)cc1C(F)(F)F [F337, 3-Chloro-6-(2-chloro-5-methoxy-4-(trifluoromethyl)phenyl)-5-fluoropicolinic acid] | 0 to 29
18 | COC(=O)c1nc(-c2ccc(Cl)c(F)c2Cl)ccc1Cl [F63, Methyl 3-chloro-6-(2,4-dichloro-3-fluorophenyl) picolinate] | 0 to 29

same assay, conditions: post-emergence, 336 h, SETFA: giant foxtail (Setaria faberi), 140 g ai/ha, 14 days after application, read-out: Visual Growth Reduction (%) 14 Days After Application, SETFA

Row | SMILES | pest or weed control at 140 g/ha [%]
19 | COC(=O)c1nc(-c2ccc(Cl)c3ccccc23)c(F)cc1Cl [F346, Methyl 3-chloro-6-(4-chloronaphthalen-1-yl)-5-fluoropicolinate] | 0 to 29
20 | COc1cc(-c2nc(C(=O)O)c(Cl)cc2F)c(Cl)cc1C(F)(F)F [F337, 3-Chloro-6-(2-chloro-5-methoxy-4-(trifluoromethyl)phenyl)-5-fluoropicolinic acid] | 85 to 94
21 | COC(=O)c1nc(-c2ccc(Cl)c(F)c2Cl)ccc1Cl [F63, Methyl 3-chloro-6-(2,4-dichloro-3-fluorophenyl) picolinate] | 75 to 84

same assay, conditions: post-emergence, 336 h, SORVU: grain sorghum (Sorghum vulgare), 140 g ai/ha, 14 days after application, read-out: Visual Growth Reduction (%) 14 Days After Application, SORVU

Row | SMILES | pest or weed control at 140 g/ha [%]
22 | COC(=O)c1nc(-c2ccc(Cl)c3ccccc23)c(F)cc1Cl [F346, Methyl 3-chloro-6-(4-chloronaphthalen-1-yl)-5-fluoropicolinate] | 0 to 29
23 | COc1cc(-c2nc(C(=O)O)c(Cl)cc2F)c(Cl)cc1C(F)(F)F [F337, 3-Chloro-6-(2-chloro-5-methoxy-4-(trifluoromethyl)phenyl)-5-fluoropicolinic acid] | 75 to 84
24 | COC(=O)c1nc(-c2ccc(Cl)c(F)c2Cl)ccc1Cl [F63, Methyl 3-chloro-6-(2,4-dichloro-3-fluorophenyl) picolinate] | 85 to 94

same assay, conditions: post-emergence, 336 h, STEME: common chickweed (Stellaria media), 140 g ai/ha, 14 days after application, read-out: Visual Growth Reduction (%) 14 Days After Application, STEME

Row | SMILES | pest or weed control at 140 g/ha [%]
25 | COC(=O)c1nc(-c2ccc(Cl)c3ccccc23)c(F)cc1Cl [F346, Methyl 3-chloro-6-(4-chloronaphthalen-1-yl)-5-fluoropicolinate] | 0 to 29
26 | COc1cc(-c2nc(C(=O)O)c(Cl)cc2F)c(Cl)cc1C(F)(F)F [F337, 3-Chloro-6-(2-chloro-5-methoxy-4-(trifluoromethyl)phenyl)-5-fluoropicolinic acid] | 0 to 29
27 | COC(=O)c1nc(-c2ccc(Cl)c(F)c2Cl)ccc1Cl [F63, Methyl 3-chloro-6-(2,4-dichloro-3-fluorophenyl) picolinate] | 0 to 29

same assay, conditions: post-emergence, 336 h, TRZAS: wheat, spring (Triticum aestivum), 140 g ai/ha, 14 days after application, read-out: Visual Growth Reduction (%) 14 Days After Application, TRZAS

Row | SMILES | pest or weed control at 140 g/ha [%]
28 | COC(=O)c1nc(-c2ccc(Cl)c3ccccc23)c(F)cc1Cl [F346, Methyl 3-chloro-6-(4-chloronaphthalen-1-yl)-5-fluoropicolinate] | 0 to 29
29 | COc1cc(-c2nc(C(=O)O)c(Cl)cc2F)c(Cl)cc1C(F)(F)F [F337, 3-Chloro-6-(2-chloro-5-methoxy-4-(trifluoromethyl)phenyl)-5-fluoropicolinic acid] | 30 to 44

same assay, conditions: post-emergence, 336 h, blackgrass (Alopecurus myosuroides), 14 Days After Application, 140 g ai/ha, read-out: Visual Growth Reduction (%) ALOMY

Row | SMILES | pest or weed control at 140 g/ha [%]
30 | COC(=O)c1nc(-c2ccc(Cl)c3ccccc23)c(F)cc1Cl [F346, Methyl 3-chloro-6-(4-chloronaphthalen-1-yl)-5-fluoropicolinate] | 0 to 29
31 | COc1cc(-c2nc(C(=O)O)c(Cl)cc2F)c(Cl)cc1C(F)(F)F [F337, 3-Chloro-6-(2-chloro-5-methoxy-4-(trifluoromethyl)phenyl)-5-fluoropicolinic acid] | 0 to 29

same assay, conditions: post-emergence, 336 h, crabgrass (Digitaria sanguinalis), 14 Days After Application, 140 g ai/ha, read-out: Visual Growth Reduction (%) DIGSA

Row | SMILES | pest or weed control at 140 g/ha [%]
32 | COC(=O)c1nc(-c2ccc(Cl)c3ccccc23)c(F)cc1Cl [F346, Methyl 3-chloro-6-(4-chloronaphthalen-1-yl)-5-fluoropicolinate] | 0 to 29
33 | COc1cc(-c2nc(C(=O)O)c(Cl)cc2F)c(Cl)cc1C(F)(F)F [F337, 3-Chloro-6-(2-chloro-5-methoxy-4-(trifluoromethyl)phenyl)-5-fluoropicolinic acid] | 45 to 59

same assay, conditions: post-emergence, 336 h, lambsquarters (Chenopodium album), 14 Days After Application, 140 g ai/ha, read-out: Visual Growth Reduction (%) CHEAL

Row | SMILES | pest or weed control at 140 g/ha [%]
34 | COC(=O)c1nc(-c2ccc(Cl)c3ccccc23)c(F)cc1Cl [F346, Methyl 3-chloro-6-(4-chloronaphthalen-1-yl)-5-fluoropicolinate] | 0 to 29
35 | COc1cc(-c2nc(C(=O)O)c(Cl)cc2F)c(Cl)cc1C(F)(F)F [F337, 3-Chloro-6-(2-chloro-5-methoxy-4-(trifluoromethyl)phenyl)-5-fluoropicolinic acid] | 75 to 84

same assay, conditions: post-emergence, 336 h, redroot pigweed (Amaranthus retroflexus), 14 Days After Application, 140 g ai/ha, read-out: Visual Growth Reduction (%) AMARE

Row | SMILES | pest or weed control at 140 g/ha [%]
36 | COC(=O)c1nc(-c2ccc(Cl)c3ccccc23)c(F)cc1Cl [F346, Methyl 3-chloro-6-(4-chloronaphthalen-1-yl)-5-fluoropicolinate] | 0 to 29
37 | COc1cc(-c2nc(C(=O)O)c(Cl)cc2F)c(Cl)cc1C(F)(F)F [F337, 3-Chloro-6-(2-chloro-5-methoxy-4-(trifluoromethyl)phenyl)-5-fluoropicolinic acid] | 30 to 44

same assay, conditions: post-emergence, 336 h, wild oat (Avena fatua), 14 Days After Application, 140 g ai/ha, read-out: Visual Growth Reduction (%) AVEFA

Row | SMILES | pest or weed control at 140 g/ha [%]
38 | COC(=O)c1nc(-c2ccc(Cl)c3ccccc23)c(F)cc1Cl [F346, Methyl 3-chloro-6-(4-chloronaphthalen-1-yl)-5-fluoropicolinate] | 0 to 29
39 | COc1cc(-c2nc(C(=O)O)c(Cl)cc2F)c(Cl)cc1C(F)(F)F [F337, 3-Chloro-6-(2-chloro-5-methoxy-4-(trifluoromethyl)phenyl)-5-fluoropicolinic acid] | 0 to 29

same assay, conditions: post-emergence, 336 h, yellow nutsedge (Cyperus esculentus), 14 Days After Application, 140 g ai/ha, read-out: Visual Growth Reduction (%) CYPES

Row | SMILES | pest or weed control at 140 g/ha [%]
40 | COC(=O)c1nc(-c2ccc(Cl)c3ccccc23)c(F)cc1Cl [F346, Methyl 3-chloro-6-(4-chloronaphthalen-1-yl)-5-fluoropicolinate] | 0 to 29
41 | COc1cc(-c2nc(C(=O)O)c(Cl)cc2F)c(Cl)cc1C(F)(F)F [F337, 3-Chloro-6-(2-chloro-5-methoxy-4-(trifluoromethyl)phenyl)-5-fluoropicolinic acid] | 0 to 29
